The test system of one series is Corn. Put plainly: Field preemergence test, phytotoxic effects on crop. In kind it is in vivo, sweet corn. The source says: (§1) Test plots of fertilized, light sandy soil containing 0.7% organic matter are sprayed uniformly with aqueous suspensions prepared from emulsifiable concentrates containing 12%, by weight, of the test chemicals diluted to provide dosage rates of the test compounds corresponding to 2.0, 1.0, 0.5, and 0.25 pound per acre (lb/A). The plots are then sown with seeds of the following crop plants: sweet corn, cotton (Coker 413) and soybeans, var. Davis. Seeds of the following weed plants are planted: redroot pigweed, prickly sida, common lambsquarter, goosegrass and giant foxtail.
(§2) Three to four weeks after planting, percent control (plant kill) of the test plants is estimated, from a rating of 0 which denotes no injury to the plant up to 100 which denotes complete destruction. The herbicidal action of the test compounds obtained on the weed species is as follows:
(§3) Phytotoxic effects observed on the crop species is estimated with results as follows: […]

Series [1] has as its system grass species: red millet, green foxtail, Japanese millet. Put plainly: Greenhouse preemergence herbicide test, grasses. In kind it is in vivo, Panicum milliacem, Setaria viridis, Echinochloa frumentacea. As to conditions: pre-emergence, 336 h, two weeks after treatment; for pest or weed control at 69.4927 g/ha: 0.062 lb/A; for pest or weed control at 140.106 g/ha: 0.125 lb/A; for pest or weed control at 280.212 g/ha: 0.25 lb/A; for pest or weed control at 560.425 g/ha: 0.5 lb/A; for pest or weed control at 1120.85 g/ha: 1.0 lb/A. On the procedure:
(§4) To illustrate the preemergence herbicidal efficiency of the alkyl-substituted 2-chloro-N-propargylacetanilides of this invention, test formulations are prepared of each compound by mixing 20 ml of an acetone solution containing 0.125 g of chemical with 20 ml of water containing 0.01 g of Triton X-155 surfactant. The resultant formulations contain 3125 ppm of test compound, 50% by volume of acetone and 0.025% by weight of surfactant. Appropriate lower concentrations are obtained by diluting this formulation with surfactant-acetone solution so that the concentration of adjuvants is maintained at the original levels.
(§5) Seeds of three broadleaf and three grass species are planted in soil contained in 10 inch × 8 inch × 3 inch aluminum pans filled with 1.5 inches of composted soil. The broadleaf species are pigweed (Amaranthus retroflexus), velvetleaf (Abutilon theophrasti), and morningglory (Ipomea coccinea); the grasses are red millet (Panicum milliacem), green foxtail (Setaria viridis) and Japanese millet (Echinochloa frumentacea).
(§6) The seeded pans are sprayed so that the soil surface is uniformly covered with dilutions of the stock formulation providing dosage rates of the test compounds as shown in the following table.
(§7) Two weeks after treatment, percent control (plant kill) at each dosage rate is estimated with results as follows: […]

Series [2] concerns broadleaf species: pigweed, velvetleaf, morningglory. Put plainly: Greenhouse preemergence herbicide test, broadleaves. As to conditions: two weeks after treatment, 20160 min. In kind it is in vivo. How it is done:
as §4, §5, §6, §7

The subject of a further series is Goosegrass. Description: Field preemergence test, weed control. In kind it is in vivo. As to conditions: 3-4 weeks after planting.
Description: as §1
(§8) Three to four weeks after planting, percent control (plant kill) of the test plants is estimated, from a rating of 0 which denotes no injury to the plant up to 100 which denotes complete destruction. The herbicidal action of the test compounds obtained on the weed species is as follows: […]

In a further series the test system is Redroot Pigweed. Description: Field preemergence test, weed control. As to conditions: 3-4 weeks after planting. In kind it is in vivo.
Description: as §1, §8

The test system of the next series is Common Lambsquarter. Put plainly: Field preemergence test, weed control. The class given is in vivo. As to conditions: 3-4 weeks after planting.
Description: as §1, §8

For another series, the system named is Prickly Sida. Put plainly: Field preemergence test, weed control. The class given is in vivo. Conditions: 3-4 weeks after planting.
Description: as §1, §8

Another series relates to Giant Foxtail. Put plainly: Field preemergence test, weed control. As to conditions: 3-4 weeks after planting. In kind it is in vivo.
Description: as §1, §8

For the next series, the system named is Soybeans. Description: Field preemergence test, phytotoxic effects on crop. The class given is in vivo, var. Davis.
Description: as §1, §2, §3

For the next series, the system named is Cotton. The description is as above. The class given is in vivo, cotton (Coker 413).
Description: as §1, §2, §3

Regarding `C#CCN(C(=O)CCl)c1ccccc1C` [Example 10, 2-Chloro-2'-methyl-N-propargylacetanilide], the “% Crop Kill, Corn” value with Corn (0.5 lb/A), in the series with Corn (1.0 lb/A) and in the series on Corn (2.0 lb/A) was 0% in each case. This compound had a pest or weed control at 69.4927 g/ha in [1] of 0%. Also, the pest or weed control at 140.106 g/ha in series [1] was 55%. For the same compound, the pest or weed control at 280.212 g/ha in [1] stood at 85%. The pest or weed control at 560.425 g/ha in [1] came to 80%. For the same compound, the pest or weed control at 1120.85 g/ha in [1] is 90%. Moreover, the “% Control, Broadleaves” value came out at 0% in [2] (0.062 lb/A); 0% in series [2] (0.125 lb/A); 0% in [2] (0.25 lb/A); 0% in series [2] (0.5 lb/A); 35% in series [2] (1.0 lb/A). The “% Weed Control, Goosegrass” value in the series with Goosegrass (0.25 lb/A) is 53%; in the series with Goosegrass (0.5 lb/A) it was 78%; in the series with Goosegrass (1.0 lb/A), 92%; in the series with Goosegrass (2.0 lb/A), 97%. In addition, the “% Weed Control, Redroot Pigweed” value in the series with Redroot Pigweed (0.25 lb/A) is recorded as 0%; with Redroot Pigweed (0.5 lb/A), 27%; in the series on Redroot Pigweed (1.0 lb/A) it was 45%; in the series with Redroot Pigweed (2.0 lb/A), 67%. The “% Weed Control, Common Lambsquarter” value in the series on Common Lambsquarter (0.25 lb/A) is reported as 40%; with Common Lambsquarter (0.5 lb/A), 60%; in the series on Common Lambsquarter (1.0 lb/A), 95%; with Common Lambsquarter (2.0 lb/A) it was 95%. Moreover, the “% Weed Control, Prickly Sida” value in the series on Prickly Sida (0.25 lb/A) worked out at 0%; in the series on Prickly Sida (0.5 lb/A) it was 0%; with Prickly Sida (1.0 lb/A) it was 0%; in the series on Prickly Sida (2.0 lb/A), 25%. Also, the “% Weed Control, Giant Foxtail” value in the series on Giant Foxtail (0.25 lb/A) is reported as 0%; in the series with Giant Foxtail (0.5 lb/A), 20%; with Giant Foxtail (1.0 lb/A), 70%; in the series with Giant Foxtail (2.0 lb/A), 80%. Further, the “% Crop Kill, Soybeans” value in the series with Soybeans (0.5 lb/A), with Soybeans (1.0 lb/A) and in the series on Soybeans (2.0 lb/A) was 0% throughout. For the same compound, the “% Crop Kill, Cotton” value worked out at 0% with Cotton (0.5 lb/A), 3% in the series on Cotton (1.0 lb/A) and 3% with Cotton (2.0 lb/A).
Turning to `C#CCN(C(=O)CCl)c1ccccc1CC` [Example 11, 2-Chloro-2'-ethyl-N-propargylacetanilide], the “% Crop Kill, Corn” value in the series with Corn (0.5 lb/A), with Corn (1.0 lb/A) and in the series on Corn (2.0 lb/A) was 0% each time. The pest or weed control at 69.4927 g/ha in series [1] is 0%. Further, the pest or weed control at 140.106 g/ha in series [1] stood at 55%. The same compound came in with a pest or weed control at 280.212 g/ha in [1] of 80%. Also, in series [1], the pest or weed control at 560.425 g/ha came to 90%. The pest or weed control at 1120.85 g/ha in series [1] stood at 95%. Besides, the results for the “% Control, Broadleaves” value in series [2] (0.5 lb/A) and in series [2] (1.0 lb/A) were 0% and 35%, respectively. The “% Weed Control, Goosegrass” value amounted to 62% with Goosegrass (0.25 lb/A), 82% in the series on Goosegrass (0.5 lb/A), 100% in the series with Goosegrass (1.0 lb/A) and 100% with Goosegrass (2.0 lb/A). Also, the “% Weed Control, Redroot Pigweed” value came to 33% with Redroot Pigweed (0.25 lb/A), 75% with Redroot Pigweed (0.5 lb/A), 80% with Redroot Pigweed (1.0 lb/A) and 98% in the series on Redroot Pigweed (2.0 lb/A). Moreover, the “% Weed Control, Common Lambsquarter” value in the series on Common Lambsquarter (0.25 lb/A) is 50%; in the series on Common Lambsquarter (0.5 lb/A), 70%; with Common Lambsquarter (1.0 lb/A), 100%; in the series on Common Lambsquarter (2.0 lb/A), 100%. The “% Weed Control, Prickly Sida” value with Prickly Sida (0.25 lb/A) came to 0%; in the series on Prickly Sida (0.5 lb/A) it was 13%; with Prickly Sida (1.0 lb/A) it was 33%; in the series with Prickly Sida (2.0 lb/A), 57%. For the same compound, the “% Weed Control, Giant Foxtail” value in the series on Giant Foxtail (0.25 lb/A) worked out at 0%; in the series on Giant Foxtail (0.5 lb/A) it was 23%; in the series on Giant Foxtail (1.0 lb/A), 45%; in the series with Giant Foxtail (2.0 lb/A), 90%. Further, the “% Crop Kill, Soybeans” value in the series on Soybeans (0.5 lb/A) is reported as 0%; with Soybeans (1.0 lb/A) it was 0%; with Soybeans (2.0 lb/A), 3%. In addition, the “% Crop Kill, Cotton” value stood at 0% with Cotton (0.5 lb/A), 10% in the series on Cotton (1.0 lb/A) and 18% in the series on Cotton (2.0 lb/A).
In [1], `C#CCN(C(=O)CCl)c1c(C)cccc1C(C)C` [Example 12, 2-Chloro-2'-methyl-6'-isopropyl-N-propargylacetanilide] returned a pest or weed control at 69.4927 g/ha of 45%, a pest or weed control at 140.106 g/ha of 65%, a pest or weed control at 560.425 g/ha of 70% and a pest or weed control at 1120.85 g/ha of 90%. The pest or weed control at 2241.7 g/ha in series [1] (2.0 lb/A) is 90%. Further, the “% Control, Broadleaves” value in [2] (1.0 lb/A) came to 0%. The “% Control, Broadleaves” value in [2] (2.0 lb/A) came out at 40%.
In series [1], `C#CCN(C(=O)CCl)c1c(C(C)C)cccc1C(C)C` [Example 13, 2-Chloro-2',6'-diisopropyl-N-propargylacetanilide] returned a pest or weed control at 140.106 g/ha of 20%, a pest or weed control at 280.212 g/ha of 50%, a pest or weed control at 560.425 g/ha of 90% and a pest or weed control at 1120.85 g/ha of 90%. Further, in series [2] (1.0 lb/A), the “% Control, Broadleaves” value was found to be 0%.
For `C#CCN(C(=O)CCl)c1c(CC)cccc1C(C)C` [Example 14, 2-Chloro-2'-ethyl-6'-isopropyl-N-propargylacetanilide], in series [1], the pest or weed control at 140.106 g/ha is 40%, the pest or weed control at 280.212 g/ha stood at 40%, the pest or weed control at 560.425 g/ha was found to be 80% and the pest or weed control at 1120.85 g/ha worked out at 100%. In addition, the “% Control, Broadleaves” value in series [2] (1.0 lb/A) stood at 0%.
Take `C#CCN(C(=O)CCl)c1ccccc1C(C)C` [Example 16, 2-Chloro-2'-isopropyl-N-propargylacetanilide]: in [1], the pest or weed control at 280.212 g/ha turned out to be 80%, the pest or weed control at 560.425 g/ha was determined as 90% and the pest or weed control at 1120.85 g/ha stood at 100%. The “% Control, Broadleaves” value in [2] (1.0 lb/A) is on record as 0%.

Source of the values: patent publication US4001325A, “α-Chloroacetanilide selective herbicides” (Diamond Shamrock Corporation, priority 1973, dated 1977).
